Values belong to the compound of their own block, whether it stands above or below them. Calls of active or inactive are those of the source.
Columns and labels:
[1] = half-maximal inhibitory concentration for glucagon-like peptide-1 release, STC-1 cell line, dose-response (AID 1117345); type: functional, cell-based
[2] = Glucagon-like peptide 1 release potency, NCI-H716 cell line, dose-response, half-maximal inhibitory concentration (AID 1117344); type: functional, cell-based
[3] = target: T1, Low molecular weight phosphotyrosine protein phosphatase (Homo sapiens, UniProt P24666); assay: LMPTP phosphatase inhibitors, dose response, biochemical, OMFP substrate, fluorescence intensity, set 2 (AID 743307); type: functional
T1 sequence (P24666 whole entry): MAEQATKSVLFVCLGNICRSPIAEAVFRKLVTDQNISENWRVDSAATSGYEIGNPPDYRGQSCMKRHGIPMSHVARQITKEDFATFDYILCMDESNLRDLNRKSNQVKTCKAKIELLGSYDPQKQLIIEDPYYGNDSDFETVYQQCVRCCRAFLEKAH

[4] = target: T1, Low molecular weight phosphotyrosine protein phosphatase; assay: LMPTP phosphatase inhibitors, colorimetric pNPP readout, dose response, orthogonal assay, biochemical, absorbance, pNPP substrate, LMPTP-A isoform, set 2 (AID 743308); type: functional
[5] = P. falciparum Dd2 blood-stage growth inhibition, dose response, SYBR Green fluorescence, erythrocytes, dry powder, set 2 (AID 1159574); type: functional, cell-based
[6] = P. falciparum late gametocyte killing, dose response, luminescence (AID 1117278); type: functional, cell-based;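 note: gametocytes exposed to compound for 24 hours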
[7] = Jurkat T cell cytotoxicity, dose response, cytotoxicity control for P. falciparum gametocyte viability project, luminescence (AID 1117277); type: functional, cell-based;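 note: potency reflects loss of cellular ATP meaning fewer viable cells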
[8] = P. falciparum Dd2 growth inhibitors, dose response, SYBR Green, dry powder samples, set 4 (AID 1159572); type: functional, cell-based
[9] = PAX2 cell-based inhibition, dose response, selectivity assay for PAX8 inhibitor project, plate reader, dry powder samples (AID 743048); type: functional;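 note: HEK293 cells carrying a WT1 promoter luciferase reporter driven by expressed Pax2; potency is for inhibition of Pax2 driven reporter signal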
[10] = cytotoxicity in COV362 ovarian cancer cells, dose response, cytotoxicity control for PAX8 inhibitor project, cell-based, plate reader, dry powder, SA12 (AID 743144); type: functional
[11] = target: Paired box protein Pax-8 (Homo sapiens, UniProt Q06710); assay: inhibitors of PAX8-driven TPO luciferase reporter, dose response, RMG-I cells, cherry-pick (AID 687027); type: functional, cell-based;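 note: luciferase reporter driven by Pax8 target thyroperoxidase promoter measured by SteadyGlo luminescence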
[12] = HEK293 cell viability, dose response, counter-screen for EBV LMP1 inhibitor project, dry powder, set 2 (AID 624374); type: functional
[13] = NIH:OVCAR-3 ovarian cancer cell cytotoxicity, dose response, PAX8 inhibitor project, plate reader, dry powder samples (AID 743044); type: functional, cell-based
[14] = PAX5 activity inhibitors, dose response, selectivity assay for PAX8 inhibitor project, cell-based, plate reader, dry powder samples (AID 743047); type: functional;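 note: HEK293 cells carrying a Pax5 driven CD19 promoter luciferase reporter; potency of inhibitors that lower reporter luminescence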
[15] = cytotoxicity dependent on PAX8, dose response, cell-based, plate reader, dry powder (AID 743049); type: functional
[16] = cytotoxicity in COV434 cells, dose response, cytotoxicity control for PAX8 inhibitor project, cell-based, plate reader, dry powder, SA7 (AID 743145); type: functional
[17] = cytotoxicity in OV-90 ovarian cancer cells, dose response, PAX8 inhibitor project, cell-based, plate reader, dry powder, SA8 (AID 743149); type: functional

Sequence of Paired box protein Pax-8 (Q06710 whole entry): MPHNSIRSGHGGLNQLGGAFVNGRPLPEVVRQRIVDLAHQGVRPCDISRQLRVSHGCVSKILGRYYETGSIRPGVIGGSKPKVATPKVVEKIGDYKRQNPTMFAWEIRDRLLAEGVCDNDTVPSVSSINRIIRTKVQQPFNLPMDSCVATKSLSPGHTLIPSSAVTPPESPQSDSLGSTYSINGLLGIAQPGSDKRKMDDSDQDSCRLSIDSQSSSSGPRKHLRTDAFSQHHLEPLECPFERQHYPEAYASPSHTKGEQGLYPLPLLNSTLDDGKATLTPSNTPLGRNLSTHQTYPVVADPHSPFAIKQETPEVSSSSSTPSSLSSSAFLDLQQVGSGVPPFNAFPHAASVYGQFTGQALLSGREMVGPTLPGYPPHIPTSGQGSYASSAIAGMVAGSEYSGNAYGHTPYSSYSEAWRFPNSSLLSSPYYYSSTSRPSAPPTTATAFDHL

Compound: Cc1cc(N)c2cc(NC(=O)Nc3ccc4nc(C)cc(N)c4c3)ccc2n1
IC50 [1]: > 40 µM (inactive)
IC50 [2]: 34.2 µM (inactive)

IC50 [3]: 22.5 µM (inactive)
IC50 [4]: 48.8 µM (inactive)
Compound: c1ccc(-c2nc(NCCCN3CCOCC3)c3ccccc3n2)cc1

Compound: COc1cccc(C#Cc2ccc([C@H]3[C@H](CO)N4C(=O)CN(C(=O)Cc5ccccc5)C[C@@H]34)cc2)c1
AC50 [5]: 10.5 µM (active)

Compound: c1ccc(CNC2=NCCS2)cc1
IC50 [6]: > 109 µM (inactive)
IC50 [7]: > 83.2 µM (inactive)

Compound: COc1ccc(NC(=O)N2CCC3(CC2)CN(C(C)=O)[C@@H](CO)c2[nH]c4cc(OC)ccc4c23)cc1
AC50 [8]: 1.73 µM (active)

Compound: C[C@@H]1CN([C@@H](C)CO)S(=O)(=O)c2ccc(C#Cc3ccncc3)cc2O[C@H]1CN(C)C(=O)Nc1ccc2c(c1)OCO2
AC50 [9]: 22.7 µM (active)
AC50 [10]: 0.0878 nM (active)
AC50 [11]: 2.44 µM (active)
AbsAC35 [12]: 39.06 µM
AC50 [13]: 19.1 µM (active)
AC50 [14]: 31.1 µM (active)
AC50 [15]: 13 µM (active)
AC50 [16]: 0.179 µM (active)
AC50 [17]: 8.27 µM (active)

— ChEMBL document CHEMBL1201862, “PubChem BioAssay data set” (2004)
